This is an account of results in patent US20240277746A1, “OPHTHALMIC NANO-DISPERSION COMPOSITION, A METHOD OF PREPARATION THEREOF, AND FORMULATION FOR CORNEAL EPITHELIAL WOUND HEALING” (THE UNIVERSITY OF JORDAN, priority 2021, published 2024).

Series [1] has as its system rabbit corneas subjected to epithelial debridement. The series can be described thus: Corneal epithelial healing in rabbit eyes. The class given is in vivo. As for the experimental part: Rabbits were used to evaluate the ability of formulations to accelerate corneal epithelial wound healing in-vivo. Xylazine was used to induce analgesia in the rabbits with intramuscular injections of about 6 mg/kg. Proparacaine 0.5% weight/volume eye drops were also used as supplemental analgesia.
The eyes were kept open during the depredation using a speculum.
Using cotton buds, about 10% of alcohol was applied to the central regions of rabbit corneas for about 20 seconds. Then epithelia within an 8 mm diameter circle in were mechanically scraped using a blunt spatula. After that, eyes were washed several times using normal saline to remove scraped epithelial cells and residual alcohol that can induce corneal irritations.
The rabbits were divided into five treatment groups. Each group contained four animals. Right eyes were selected to receive normal saline while left eyes were assigned to receive the treatment.
The treatment was either about 200 μl (4 drops) of 5% ascorbic acid solution in 0.2 N sodium phosphate buffer pH 7.4, blank oily eye drops, AA as oily eye drops and AA-2G as oily eye drops.
The treatments were administered topically to the wounded eyes, along with topical ofloxacin antibiotic drops (Oflox, Allergan, Inc.), immediately following surgery and 6, 12, 24, 30, 36, 48, 54, 60 and 72-hour post-surgery.
Throughout the healing process, rabbits were closely monitored for evidence of distress or infection, and epithelial wound closure was examined at each dosing time point by applying about 50 μL of 0.25% topical fluorescein eye drops to the injured cornea and imaging the wound under cobalt blue light.
The area of each epithelial defect was measured using “ImageJ”, an image analysis software. Percent healing (“H %”) was calculated as a percentage of the initial wound area. According to the following equation: […]
Wherein Ai indicates the wound area at a given time point and A0 indicates the initial wound area.

A short description of series [2]: Transcorneal permeation study, Franz-type diffusion cells. The class given is in vitro ADME, sheep. The note with it: AA-2G, mean ± SD, n = 3. As for the experimental part: (§1) In vitro permeation and accumulation studies were performed on freshly excised sheep cornea obtained from a local slaughterhouse within an hour after the slaughter of the animals.
After the preparation of excised cornea, it was directly fixed between the donor and receptor compartments of Franz-type diffusion cells in such a way that its epithelial surface was facing the donor compartment and the endothelial surface was facing the receptor compartment.
The diameter of the diffusion area of the diffusion cells was 11 mm, producing an effective diffusion area of about 0.95 cm^2. The receptor compartment was filled with about 12 ml of normal saline solution stirred using teflon-coated magnetic stirring bars and maintained at a temperature of about 37° C. by circulating warm water through the water jacket around the receptor compartment. Special care was taken to expel air bubbles from the receptor fluid.
The permeation study was carried out by placing about 1 ml of either the prepared AA-2G loaded S/O nano-dispersion, AA-2G solution or normal saline on top of the cornea in the donor compartment.
An aliquot (about 0.3 ml) of the receptor fluid was withdrawn at about 0.5, 1, 1.5, 2, 3, 4, and 6 hours after beginning the experiment and replaced by an equal volume of fresh receptor solution. The receptor fluid content of AA-2G was determined quantitatively using the High-performance liquid chromatography (“HPLC”) method.

Series [3] is described as follows: Corneal accumulation study (AA-2G entrapped within the corneal tissue after the permeation study). The class given is in vitro ADME, sheep. The note with it: Qr6 hr; AA-2G in corneal tissue; mean ± SD, n = 3. As for the experimental part:
as §1
To quantify the amount of AA-2G entrapped within the corneal tissue after finishing the in vitro permeation study, the diffusion cells were dismantled, the corneas were quickly washed with normal saline to remove the surface-attached AA-2G, then the diffusional areas were cut out and digested using about 0.5 ml of 0.5 M NaOH for about 12 hours at about 37° C. in a shaker incubator to obtain a solution. After that, about 0.5 ml of ethanol and about 1 ml of acetonitrile were added to this solution to precipitate the dissolved proteins. The samples were then centrifuged at about 8000 rpm for about 10 minutes. The supernatants were taken and diluted with the mobile phase for HPLC analysis.

`O=C1O[C@H]([C@@H](O)CO)C(O)=C1O` [AA solution, ascorbic acid]: the “relative healing rate (normalized to normal saline)” value is 3.28 in series [1] (6-hour) and 1.39 in series [1] (12-hours). Besides, the “% healing” value in series [1] (after 6 hours, topical, rabbit, n=4) was 22.9%. The “wound-healing rate enhancement vs control (normal saline)” value in series [1] (first 6 hours) was “up to 3.28 folds”. Further, in series [1] (rabbit eyes, topical, vs normal saline), the “effect on corneal epithelial healing” value was “significantly increased”.

For `O=C1O[C@H]([C@@H](O)CO)C(O)=C1O[C@H]1O[C@H](CO)[C@@H](O)[C@H](O)[C@H]1O` [AA-2G solution, Ascorbyl glucoside], the “Amount permeated per unit area Qt” value in series [2] (Time 0.5 hr) came out at 0.00 μg/cm2; in series [2] (Time 1 hr) it was 0.00 μg/cm2; in series [2] (Time 1.5 hr), 0.00 μg/cm2; in series [2] (Time 2 hr), 0.00 μg/cm2; in series [2] (Time 3 hr) it was 4.56 ± 3.29 μg/cm2; in series [2] (Time 4 hr) it was 11.21 ± 3.67 μg/cm2. In addition, the “Amount permeated per unit area Qt” value in series [2] (Time 6 hr) came out at 41.02 ± 0.21 μg/cm2. Further, the “Amount accumulated per unit area Qr (accumulation)” value in series [3] was determined as 30.91 ± 1.04 μg/cm2.
